# How the values were obtained:
# Parameters in all cases: scale not given here
# SETVI Foxtail, Green = experiment: Preemergence herbicidal evaluation, SETVI; assay type: in vivo, Setaria viridis, (L.) Beau; conditions: preemergence
# Summary of the method: (§1)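 First, seed is blended with potting soil and sown over roughly an inch of soil per cup. Next, the surface is sprayed with an aqueous acetone solution delivering about 0.013–0.800 kg/ha. Finally, cups are grown in the greenhouse and rated after 4–5 weeks.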
# ECHOG Barnyardgrass [1] = experiment: Postemergence herbicidal evaluation, ECHOG; assay type: in vivo, Echinochloa crus-galli, (L.) Beau; conditions: postemergence spray, rated about two-three weeks after treatment
# Summary of the method: (§2)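 Visual injury rating ~2–3 wk post-spray; replicate tests averaged. Two-week-old seedlings; foliar spray at 40 psi; 0.006–0.400 kg ai/ha in 80/20 acetone/water + 1.0% methylated seed oil.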
# [2] = system: CHEAL Lambsquarters, Common; experiment: Preemergence herbicidal evaluation, CHEAL; assay type: in vivo, Chenopodium album, L.; conditions: preemergence
# Summary of the method: as §1
# ECHOG Barnyardgrass [3] = experiment: Preemergence herbicidal evaluation, ECHOG; assay type: in vivo, Echinochloa crus-galli, (L.) Beau; conditions: preemergence
# Summary of the method: as §1
# AMBEL Ragweed, Common = experiment: Postemergence herbicidal evaluation, AMBEL; assay type: in vivo, Ambrosia artemisifolia, L.; conditions: postemergence spray, rated about two-three weeks after treatment
# Summary of the method: as §2
smiles,measurement,setting,value
"Cc1ccc(O)c(-n2nnc3cc(F)c(-n4c(=O)cc(C(F)(F)F)n(C)c4=O)cc32)c1 [Example 31, 3-[5-Fluoro-1-(2-Hydroxy-5-Methylphenyl)-1H-1,2,3-Benzotriazol-6-yl]-1-Methyl-6-(Trifluoromethyl)-2,4(1H,3H)-(Pyrimidinedione)]",SETVI herbicidal rating,"SETVI Foxtail, Green; rate 0.008 kg/ha",0.0
same,SETVI herbicidal rating,"SETVI Foxtail, Green; rate 0.016 kg/ha",0.0
same,SETVI herbicidal rating,"SETVI Foxtail, Green; rate 0.032 kg/ha",0.0
same,SETVI herbicidal rating,"SETVI Foxtail, Green; rate 0.062 kg/ha",0.0
same,SETVI herbicidal rating,"SETVI Foxtail, Green; rate 0.125 kg/ha",0.0
same,Postemergence herbicidal rating ECHCG,ECHOG Barnyardgrass [1]; 0.008 kg/ha,0.0
same,Postemergence herbicidal rating ECHCG,ECHOG Barnyardgrass [1]; 0.016 kg/ha,0.0
same,Postemergence herbicidal rating ECHCG,ECHOG Barnyardgrass [1]; 0.032 kg/ha,0.0
same,Postemergence herbicidal rating ECHCG,ECHOG Barnyardgrass [1]; 0.062 kg/ha,3.0
same,CHEAL herbicidal rating,[2]; rate 0.008 kg/ha,0.0
same,CHEAL herbicidal rating,[2]; rate 0.016 kg/ha,0.0
same,CHEAL herbicidal rating,[2]; rate 0.032 kg/ha,0.0
same,CHEAL herbicidal rating,[2]; rate 0.062 kg/ha,3.0
same,CHEAL herbicidal rating,[2]; rate 0.125 kg/ha,9.0
same,ECHCG herbicidal rating,ECHOG Barnyardgrass [3]; rate 0.008 kg/ha,0.0
same,ECHCG herbicidal rating,ECHOG Barnyardgrass [3]; rate 0.016 kg/ha,0.0
same,ECHCG herbicidal rating,ECHOG Barnyardgrass [3]; rate 0.032 kg/ha,0.0
same,ECHCG herbicidal rating,ECHOG Barnyardgrass [3]; rate 0.062 kg/ha,0.0
same,ECHCG herbicidal rating,ECHOG Barnyardgrass [3]; rate 0.125 kg/ha,0.0
same,Postemergence herbicidal rating AMBEL,"AMBEL Ragweed, Common; 0.008 kg/ha",0.0
same,Postemergence herbicidal rating AMBEL,"AMBEL Ragweed, Common; 0.016 kg/ha",0.0
same,Postemergence herbicidal rating AMBEL,"AMBEL Ragweed, Common; 0.032 kg/ha",0.0
same,Postemergence herbicidal rating AMBEL,"AMBEL Ragweed, Common; 0.062 kg/ha",3.0

# Reference: patent US20020111274A1, “1-alkyl-3-[1-(substituted phenyl) benzotriazol-6-yl] uracils” (BASF Aktiengesellschaft, priority 2000, published 2002)
